What was measured:
[1] = test system: HeL, a human erythroid leukemia; experiment: colonogenic cell survival assay; format: cell-based; settings: 120 h, read-out: Colonies formed after 5-days (% of control)
Description: (§1) Inhibition of colony formation in soft agar medium (colonogenic cell survival assay) is a more rigorous and direct measurement of cell kill or growth inhibition, and reflects the anti-cancer activity of the test compound. Briefly, tumor cells were cultured in petri dishes in methylcellulose, with or without a phosphonate test compound, and the number of colonies formed during a 5-day incubation period were counted.
(§2) The anti-cancer activity of the phosphonate of the following formula: [drawing 16] against human leukemia and lymphoma was also studied using the colonogenic cell survival assay. DHL4, a human B cell lymphoma; HeL, a human erythroid leukemia: JRT3T3, a human T-cell lymphoma; and KG 1α, a human mycloid leukemia, were evaluated for their sensitivity to the cytotoxic activity of the phosphonate of the above formula (compound VIII).

[2] = test system: JRT3T3, a human T-cell lymphoma; experiment: colonogenic cell survival assay; format: cell-based; settings: 120 h, read-out: Colonies formed after 5-days (% of control)
Description: as §1, §2

[3] = test system: KG1α, a human myeloid leukemia; experiment: colonogenic cell survival assay; format: cell-based; settings: KG-1a, 120 h, read-out: Colonies formed after 5-days (% of control)
Description: as §1, §2

[4] = test system: human melanoma cell line (RPMI-7951); experiment: RPMI-7951 melanoma growth and metastasis in nude mice, topical treatment; format: in vivo; settings: topically twice a day, emulsion of 80 mg/mL; RPMI-7951 intradermal in nude mice
Description: Similar studies were also performed with a human melanoma cell line (RPMI-7951) grown in nude mice. Mice injected with RPMI-7951 cell line intradermally developed tumors. When the mice were treated topically, twice a day, with an emulsion of 80 mg/mL of the phosphonate compound of the formula shown above (compound VIII), the growth and metastasis of tumors were retarded by approximately 60%.

[5] = test system: human colorectal cell line (HT-29); experiment: HT-29 tumor growth in nude mice; format: in vivo; settings: orally once a day, 5 mg/Kg body weight; HT-29 subcutaneous in nude mice
Description: Studies were also performed with nude mice injected with the human colorectal cell line (HT-29) subcutaneously.

`CCCCCCCCCCCCCCCCOCC(CCP(=O)([O-])OCC[N+](C)(C)C)OC` (centres unmarked) [compound VIII] showed an activity at 1.25 µM ([1]; 1.25 μM) of 91 ± 8%, an activity at 2.5 µM ([1]; 2.5 μM) of 72 ± 5% and an activity at 5 µM ([1]; 5 μM) of 58 ± 4%. For the same compound, the activity at 10 µM ([1]; 10 μM) was 26 ± 5%, the activity at 20 µM ([1]; 20 μM) was 12 ± 3% and the activity at 40 µM ([1]; 40 μM) was 1 ± 0.5%. It also gave an activity at 1.25 µM ([2]; 1.25 μM) of 87 ± 6%, an activity at 2.5 µM ([2]; 2.5 μM) of 65 ± 7% and an activity at 5 µM ([2]; 5 μM) of 34 ± 5%. The activity at 10 µM ([2]; 10 μM) was 20 ± 3%, the activity at 20 µM ([2]; 20 μM) was 8 ± 2% and the activity at 40 µM ([2]; 40 μM) was 3 ± 1%. For the same compound, the activity at 1.25 µM ([3]; 1.25 μM) was 78 ± 8%, the activity at 2.5 µM ([3]; 2.5 μM) was 56 ± 6% and the activity at 5 µM ([3]; 5 μM) was 41 ± 4%. It also gave an activity at 10 µM ([3]; 10 μM) of 15 ± 3%, an activity at 20 µM ([3]; 20 μM) of 7 ± 1% and an activity at 40 µM ([3]; 40 μM) of 4 ± 1%. For the same compound, the “retardation of growth and metastasis of tumors” value [4] was “approximately 60%” and the “retardation of tumor growth” value [5] was 30-40%.

— US5506217A, “Phosphonates as anti-cancer agents” (The University of British Columbia, priority 1994, dated 1996)
